# Like-named read-outs stand apart in the source and are kept apart here.
# Columns and labels:
# eDHFR = molecular target: T1, eDHFR (Escherichia coli, UniProt P0ABQ4); assay: biochemical; details: for light-induced change in eDHFR inhibition (dark IC50 vs irradiated IC50): irradiation with λ1 = 365 nm;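 on all read-outs here: purified E. coli DHFR colorimetric assay, enzyme with NADPH 3 min then inhibitor (10^-12 to 10^-5 M) 7 min, rate ΔAbs/s relative to DMSO control (1% v/v), triplicates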
# T1 construct: made in house; host or cells: E. cloni EXPRESS BL21 (DE3) cells (Lucigen), pT7-SC1 plasmid
# Protocol: A 10 mM stock solution of the inhibitor in DMSO was divided into two parts. One half was thermally adapted with a heat gun for 1 min to obtain only the trans isomer.
# The compounds were tested as eDHFR inhibitors via a colorimetric assay (Sigma-Aldrich, Catalog No. CS0340). Instead of the human DHFR protein provided in the kit, the in-house purified eDHFR was used. In a 3 mL cuvette, eDHFR (∼20 ng) was incubated with NADPH (60 μM, final) for 3 min, followed by an incubation with the inhibitor (from 10^–5 to 10^–12 M, final) for an additional 7 min. […] The concentration of DMSO in the final volume was 1% v/v for all enzymatic reactions. The measurements were performed in triplicates. For the control enzymatic reactions, eDHFR was incubated with NADPH and DMSO (1% v/v, final). […] The related control enzymatic reaction was also performed under continuous irradiation with λ1 = 390 nm light. Linear regression was performed in Microsoft Excel to calculate ΔAbs/s. % eDHFR activity was calculated as the ratio between ΔAbs/s for the sample and ΔAbs/s for the control reaction. GraphPadPrism 5.0 (GraphPad Software, Inc., version 5.00) was used for the determination of the IC50 of each inhibitor. Nonlinear regression was used for data fitting.
# [1] = Thermal cis-to-trans isomerization (thermal half-life of the metastable cis isomer); assay type: physicochemical; details: thermal cis-to-trans isomerization, DMSO, 25 °C, 20 µM
# Protocol: UV–vis absorption spectra were recorded on an Agilent 8453 UV–vis Spectrophotometer. Photochemical isomerization (photoswitching) was achieved by irradiation from the side in a fluorescence quartz cuvette (width = 1.0 cm) using a custom-built (Prizmatix/Mountain Photonics) multiwavelength fiber coupled LED system (FC6-LED-WL) including the following LEDs: 365A, 390B, 420Z, 445B, 535R, 630CA. A detailed description of the setup was published by us recently.[84] Alternatively, the samples were irradiated at 340 nm using the LOT Quantum design setup with 300 W Xe-Arc lamp, using the Thorlabs FB340-10 Bandpass filter. A Quantum Northwest TC1 temperature controller was used to maintain the temperature at 25 °C during photochemical studies. To analyze the fatigue resistance of the compounds, repeated irradiation cycles were performed using alternating wavelengths. The decrease and increase of the π–π* transition band was followed by UV–vis spectroscopy (Agilent 8453) at 25 °C while stirring. To determine the thermal lifetime for the metastable cis isomer, samples were irradiated with the custom-built setup until photostationary state (PSS) was reached. Then, the cuvettes were placed in a JASCO V750 spectrophotometer with a PTC 424S/15 temperature controller, and the recovery of the π–π* transition was followed while stirring at 25 °C (for solutions in DMSO and eDHFR assay buffer) or 37 °C (for solutions in 10 mM Tris-HCl buffer pH 7.0). The data were fitted using a first-order exponential function in OriginPro 2018. For the PSD determination by ^1H NMR spectroscopy, 0.5 mL of a 2 mM solution of the respective compound in DMSO-d6 was thermally equilibrated by briefly (∼10 s) heating the sample with a heat gun. Subsequently, the sample was irradiated in a glass NMR tube with a 365 nm hand-held lamp (Spectroline ENB-280C) or the LEDs of the custom-built setup. Detailed data are reported in the SI.
# E. coli CS1562 = assay: Antibacterial activity assay (MIC, bacterial growth curves); assay type: cell-based, Escherichia coli; details: for MIC: Escherichia coli; for MIC / bacterial growth inhibition, same in both forms: both before and after irradiation with λ1 = 365 nm; for MIC / bacterial growth inhibition, same in both forms / light-induced difference in antibacterial activity (dark MIC vs irradiated MIC): E. coli CS1562; for light-induced difference in antibacterial activity (dark MIC vs irradiated MIC): irradiation with λ1 = 365 nm
# Protocol: A culture of E. coli CS1562 was grown overnight in LB medium (10 g/L tryptone, 5 g/L yeast extract, 5 g/L NaCl) containing tetracycline (10 μg/mL) at 37 °C. The OD600 was measured, and the culture was diluted to 0.002 OD600 in LB medium. Series dilutions of the compounds were prepared in DMSO and diluted 25 times in sterile LB medium in a black sterile Eppendorf tube. […] Subsequently, the dark samples were added to the 96-well plate (100 μL, triplicates). Lastly, the LB medium containing E. coli CS1562 at 0.002 OD was added to every well (100 μL). The cells were grown overnight at 37 °C in a plate reader (Synergy H1, Biotek), and the OD600 was measured every 10 min with a 10 s shaking step before each measurement. The OD600 curves were background-corrected by subtracting the value at t = 0. […] Detailed data are reported in the SI.
# [2] = IC50 Dark, dark-adapted (thermally adapted, trans isomer)
# [3] = after irradiation, read-out: DHFR inhibition IC50 (nM) after irradiation
# [4] = before irradiation, read-out: DHFR inhibition IC50 (nM) before irradiation
# [5] = irradiated with λ1 (1: continuous irradiation at 390 nm), read-out: IC50 Light
# [6] = no considerable activity up to, dark-adapted and irradiated states
# [7] = DHFR inhibition IC50 (nM) before irradiation, before irradiation
# [8] = irradiated to PSS with λ1 (340 nm for 3, 365 nm for 6-15), read-out: IC50 Light
# [9] = light or radiation study, after irradiation with λ1 = 365 nm, E. coli CS1562, 24 h, read-out: MIC Light
# [10] = light or radiation study, after irradiation, E. coli CS1562, 24 h, read-out: MIC (µM) after irradiation
# [11] = light or radiation study, before irradiation, E. coli CS1562, 24 h, read-out: MIC (µM) before irradiation
# [12] = dark, E. coli CS1562, 24 h, read-out: MIC Dark
# T1 sequence (P0ABQ4 whole entry): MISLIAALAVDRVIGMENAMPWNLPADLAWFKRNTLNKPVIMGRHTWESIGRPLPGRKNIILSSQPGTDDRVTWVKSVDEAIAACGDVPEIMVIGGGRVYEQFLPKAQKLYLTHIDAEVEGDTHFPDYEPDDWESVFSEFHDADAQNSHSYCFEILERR
compound,measurement,setting,value
"Nc1ccnc(N)n1 [2,4-diaminopyrimidine, reference compound]",IC50,"eDHFR; fragment, no irradiation, read-out: IC50",390000 ± 150000 nM
"Nc1ncc(/N=N/c2ccccc2)c(N)n1 [Compound 1, (E)-5-(Phenyldiazenyl)pyrimidine-2,4-diamine]",t1/2 DMSO (25 °C),[1],1.3 h
same,IC50,eDHFR; [2],> 10000 nM
same,IC50,eDHFR; [3],> 10000 nM
same,IC50,eDHFR; [4],> 10000 nM
same,IC50,eDHFR; [5],> 10000 nM
same,IC50,eDHFR; [6],> 10000 nM
same,melting point,,> 250 °C
"Nc1ncc(-c2ccc(/N=N/c3ccccc3)cc2)c(N)n1 [Compound 2, (E)-5-[4-(Phenyldiazenyl)phenyl]pyrimidine-2,4-diamine]",t1/2 DMSO (25 °C),[1],27 h
same,IC50,eDHFR; [2],> 10000 nM
same,IC50,eDHFR; [3],> 10000 nM
same,IC50,eDHFR; [4],> 10000 nM
same,IC50,eDHFR; [5],> 10000 nM
same,IC50,eDHFR; [6],> 10000 nM
same,melting point,,199 to 201 °C
"Nc1ncc(C#Cc2ccc(/N=N/c3ccccc3)cc2)c(N)n1 [Compound 4, (E)-5-{[4-(Phenyldiazenyl)phenyl]ethynyl}pyrimidine-2,4-diamine]",t1/2 DMSO (25 °C),[1],8.6 h
same,IC50,eDHFR; [2],> 10000 nM
same,IC50,eDHFR; [3],> 10000 nM
same,IC50,eDHFR; [4],> 10000 nM
same,IC50,eDHFR; [5],> 10000 nM
same,IC50,eDHFR; [6],> 10000 nM
"Nc1ncc(C#Cc2cccc(/N=N/c3ccccc3)c2)c(N)n1 [Compound 5, (E)-5-{[3-(Phenyldiazenyl)phenyl]ethynyl}pyrimidine-2,4-diamine]",t1/2 DMSO (25 °C),[1],> 24 h
same,IC50,eDHFR; [2],5300 nM
same,IC50,eDHFR; [5],2600 nM
same,melting point,,207 to 209 °C
"COc1ccc(/N=N/c2ccc(C(C)(C#Cc3cnc(N)nc3N)OC)cc2)cc1 (stereo not drawn) [Compound 8, (E)-5-{3-Methoxy-3-[4-((4-methoxyphenyl)diazenyl]phenyl}but-1-yn-1-yl)pyrimidine-2,4-diamine]",t1/2 DMSO (25 °C),[1],> 24 h
same,IC50,eDHFR; [7],330 ± 190 nM
same,IC50,eDHFR; [2],330 ± 190 nM
same,IC50,eDHFR; [3],200 ± 77 nM
same,IC50,eDHFR; [8],200 ± 77 nM
same,IC50,eDHFR; [5],200 nM
same,MIC,E. coli CS1562; [9],> 80 µM
same,MIC,E. coli CS1562; [10],> 80 µM
same,MIC,E. coli CS1562; [11],> 80 µM
same,MIC,E. coli CS1562; [12],> 80 µM
same,"MIC / bacterial growth inhibition, same in both forms",E. coli CS1562,> 80 µM
same,melting point,,186 to 189 °C
"COC(C)(C#Cc1cnc(N)nc1N)c1ccc(/N=N/c2c(C)nn(C)c2C)cc1 (stereo not drawn) [Compound 9, (E)-5-(3-Methoxy-3-(4-((1,3,5-trimethyl-1H-pyrazol-4-yl)diazenyl)phenyl)but-1-yn-1-yl)pyrimidine-2,4-diamine]",t1/2 DMSO (25 °C),[1],> 24 h
same,IC50,eDHFR; [3],640 ± 510 nM
same,IC50,eDHFR; [4],220 ± 60 nM
same,MIC,E. coli CS1562; [9],80 µM
same,MIC,E. coli CS1562; [10],80 µM
same,MIC,E. coli CS1562; [11],80 µM
same,MIC,E. coli CS1562; [12],80 µM
same,light-induced difference in antibacterial activity (dark MIC vs irradiated MIC),E. coli CS1562,did not display any light-dependent potency difference
same,melting point,,162 to 164 °C
"COC(C)(C#Cc1cnc(N)nc1N)c1ccc(/N=N/c2cccc(C(=O)O)c2)cc1 (stereo not drawn) [Compound 10, (E)-3-{[4-(4-(2,4-Diaminopyrimidin-5-yl)-2-methoxybut-3-yn-2-yl)phenyl]diazenyl}benzoic acid]",t1/2 DMSO (25 °C),[1],> 24 h
same,IC50,eDHFR; [2],24 nM
same,IC50,eDHFR; [8],57 nM
same,MIC,E. coli CS1562; [9],20 µM
same,MIC,E. coli CS1562; [10],20 µM
same,MIC,E. coli CS1562; [11],20 µM
same,MIC,E. coli CS1562; [12],20 µM
same,"MIC / bacterial growth inhibition, same in both forms",E. coli CS1562,20 µM
same,melting point,,190 °C (dec.)
"COC(C)(C#Cc1cnc(N)nc1N)c1ccc(/N=N/c2ccc(C(=O)O)cc2)cc1 (stereo not drawn) [Compound 11, (E)-4-{[4-(4-(2,4-Diaminopyrimidin-5-yl)-2-methoxybut-3-yn-2-yl)phenyl]diazenyl}benzoic acid]",t1/2 DMSO (25 °C),[1],> 24 h
same,IC50,eDHFR; [7],58 ± 13 nM
same,IC50,eDHFR; [2],58 ± 13 nM
same,IC50,eDHFR; [3],70 ± 39 nM
same,IC50,eDHFR; [8],70 ± 39 nM
same,light-induced change in eDHFR inhibition (dark IC50 vs irradiated IC50),eDHFR,not significant
same,MIC,E. coli CS1562; [9],40 µM
same,MIC,E. coli CS1562; [10],40 µM
same,MIC,E. coli CS1562; [11],40 µM
same,MIC,E. coli CS1562; [12],40 µM
same,"MIC / bacterial growth inhibition, same in both forms",E. coli CS1562,40 µM
same,melting point,,248 °C (dec.)
"COC(C)(C#Cc1cnc(N)nc1N)c1ccc(/N=N/c2ccc(C)c(C(=O)O)c2)cc1 (stereo not drawn) [Compound 12, (E)-5-{[4-(4-(2,4-Diaminopyrimidin-5-yl)-2-methoxybut-3-yn-2-yl)phenyl]diazenyl}-2-methylbenzoic acid]",t1/2 DMSO (25 °C),[1],> 24 h
same,IC50,eDHFR; [3],71 ± 18 nM
same,IC50,eDHFR; [4],13 ± 2.8 nM
same,light-induced change in eDHFR inhibition (dark IC50 vs irradiated IC50),eDHFR,5 fold
same,MIC,E. coli CS1562; [9],20 µM
same,MIC,E. coli CS1562; [10],20 µM
same,MIC,E. coli CS1562; [11],20 µM
same,MIC,E. coli CS1562; [12],20 µM
same,melting point,,221 °C (dec.)
"COC(C)(C#Cc1cnc(N)nc1N)c1ccc(/N=N/c2ccc(Cl)c(C(=O)O)c2)cc1 (stereo not drawn) [Compound 13, (E)-2-Chloro-5-{[4-(4-(2,4-diaminopyrimidin-5-yl)-2-methoxybut-3-yn-2-yl)phenyl]diazenyl}benzoic acid]",t1/2 DMSO (25 °C),[1],> 24 h
same,IC50,eDHFR; [3],29 ± 8.6 nM
same,IC50,eDHFR; [4],28 ± 4.8 nM
same,light-induced change in eDHFR inhibition (dark IC50 vs irradiated IC50),eDHFR,no difference in activity
same,MIC,E. coli CS1562; [9],80 µM
same,MIC,E. coli CS1562; [10],80 µM
same,MIC,E. coli CS1562; [11],40 µM
same,MIC,E. coli CS1562; [12],40 µM
same,melting point,,212 °C (dec.)
"COC(C)(C#Cc1cnc(N)nc1N)c1ccc(/N=N/c2ccc(C(=O)O)c(C)c2)cc1 (stereo not drawn) [Compound 14, (E)-4-{[4-(4-(2,4-Diaminopyrimidin-5-yl)-2-methoxybut-3-yn-2-yl)phenyl]diazenyl}-2-methylbenzoic acid]",t1/2 DMSO (25 °C),[1],> 24 h
same,IC50,eDHFR; [3],37 ± 14 nM
same,IC50,eDHFR; [4],77 ± 26 nM
same,light-induced change in eDHFR inhibition (dark IC50 vs irradiated IC50),eDHFR,2 fold
same,MIC,E. coli CS1562; [9],40 µM
same,MIC,E. coli CS1562; [10],40 µM
same,MIC,E. coli CS1562; [11],20 µM
same,MIC,E. coli CS1562; [12],20 µM
same,melting point,,240 °C (dec.)
"COC(C)(C#Cc1cnc(N)nc1N)c1ccc(/N=N/c2ccc(C(=O)O)c(Cl)c2)cc1 (stereo not drawn) [Compound 15, (E)-2-Chloro-4-{[4-(4-(2,4-diaminopyrimidin-5-yl)-2-methoxybut-3-yn-2-yl)phenyl]diazenyl}benzoic acid]",t1/2 DMSO (25 °C),[1],> 24 h
same,IC50,eDHFR; [7],52 ± 11 nM
same,IC50,eDHFR; [2],52 ± 11 nM
same,IC50,eDHFR; [3],27 ± 3.7 nM
same,IC50,eDHFR; [8],27 ± 3.7 nM
same,light-induced change in eDHFR inhibition (dark IC50 vs irradiated IC50),eDHFR,2 fold
same,MIC,E. coli CS1562; [9],20 µM
same,MIC,E. coli CS1562; [10],20 µM
same,MIC,E. coli CS1562; [11],40 µM
same,MIC,E. coli CS1562; [12],40 µM
same,light-induced difference in antibacterial activity (dark MIC vs irradiated MIC),E. coli CS1562,2 fold
same,melting point,,245 °C (dec.)
"COc1ccc(/N=N/c2ccc(COc3c(OC)cc(Cc4cnc(N)nc4N)cc3OC)cc2)cc1 [PMAT, para-methoxyazobenzene trimethoprim, reference compound]",IC50,eDHFR; [2],2 ± 0.61 nM
same,IC50,eDHFR; [8],2.5 ± 0.61 nM
"COc1cc(Cc2cnc(N)nc2N)cc(OC)c1OCc1cc(Cl)c(/N=N/c2c(Cl)cccc2Cl)c(Cl)c1 [TCAT, tetra-ortho-chloroazobenzene trimethoprim, reference compound]",IC50,eDHFR; [3],3.3 ± 2.1 nM
same,IC50,eDHFR; [4],3.8 ± 1.4 nM
"COc1cc(Cc2cnc(N)nc2N)cc(OC)c1OCc1cc(F)c(/N=N/c2c(F)cccc2F)c(F)c1 [TFAT, tetra-ortho-fluoroazobenzene trimethoprim, reference compound]",IC50,eDHFR; [3],1.7 ± 0.32 nM
same,IC50,eDHFR; [4],1.9 ± 0.61 nM
"COc1cc(Cc2cnc(N)nc2N)cc(OC)c1OC [TMP, trimethoprim, reference compound]",MIC,"E. coli CS1562; CS1562, light or radiation study, 24 h",1.3 µM
same,MIC,"E. coli CS1562; CS1562, light or radiation study, 24 h, read-out: MIC (µM) before irradiation",1.3 µM
